According to patent US6353119B1, “Preparation of 3-substituted-4-arylquinolin-2-one derivatives” (Bristol-Myers Squibb Company, priority 1999, dated 2002):

Columns and labels:
[1] = test system: ICP/BP responses elicited by stimulation of the cavernous nerve; test: In vivo erectile function model, intracavernous pressure response to cavernous nerve stimulation; parameters: species or system rat; conditions: 0.1-1 mg/kg i.v.; anesthetized rats
Text: The in vivo model on erectile function is described fully in the scientific literature (Rehman, J., Chenven, E., Brink, P. Peterson, B., Wolcott, B., Wen, Y. P., Melman, A., Christ, G.: Diminished neurogenic but not pharmacological erections in the 2- to 3-month experimentally diabetic F-344 rat. Am. J. Physiol. 272: H1960-H1971, 1997). Briefly, rats (250-600 g) were anesthetized using sodium pentobarbital, the abdomen opened and the cavernous nerve identified. A pressure catheter was placed in the right corpus cavernosum (crus) to measure intracavernous pressure (ICP). A second catheter was introduced into the carotid artery to measure blood pressure. Test compound (0.1, 0.3 and 1 mg/kg i.v.) or vehicle (PEG 400) was given via a catheter placed into the jugular vein.
Control intracavernous pressure responses were elicited by electrically stimulating the cavernous nerve via bipolar stimulating electrodes (20 Hz, 0.22 ms pulse width). Stimulus amplitude (0.2-20 mA) was adjusted to produce a submaximal intracavernous pressure response (typically 0.2 or 0.5 mA). A series of control intracavernous pressure responses were then obtained using a constant stimulus amplitude. Test compound or vehicle was then administered (200 μl i.v bolus) and the cavernous nerve was restimulated to evoke a cavernous pressure response at various times post-drug administration. […]

[2] = test system: cloned mammalian (mSlo or hSlo) BK channels heterologously expressed in Xenopus oocytes; test: BK-mediated outward current in Xenopus oocytes, two-electrode voltage clamp; format: cell-based, Xenopus oocyte; conditions: at 20 μM; IBTX-sensitive current; at least 5 oocytes
Description: The ability of compounds described in the present invention to open BK channels and increase whole-cell outward (K^+) BK-mediated currents was assessed under voltage-clamp conditions by determining their ability to increase cloned mammalian (mSlo or hSlo) BK-mediated outward current heterologously expressed in Xenopus oocytes [Butler, A., et al., Science, 261: 221-224 (1993); and Dworetzky, S. I., et al., Mol. Brain Res., 27: 189-193 (1994)]. The two BK constructs employed represent nearly structurally identical homologous proteins, and have proven to be pharmacologically identical in our tests. To isolate BK current from native (background, non-BK) current, the specific and potent BK channel-blocking toxin iberiotoxin (IBTX) [Galvez, A., et al., J. Biol. Chem., 265: 11083-11090 (1990)] was employed at a supramaximal concentration (50 nM). The relative contribution of BK channels current to total outward current was determined by subtraction of the current remaining in the presence of IBTX (non-BK current) from the current profiles obtained in all other experimental conditions (control, drug, and wash). […] All compounds were tested in at least 5 oocytes and are reported at the single concentration of 20 μM; the effect of the selected compounds of Formula I on BK current was expressed as the percent of control IBTX-sensitive current and is listed in Table 1. […]

[3] = test system: permanent MCAO focal stroke model; test: Permanent focal ischemia, middle cerebral artery occlusion (MCAO) model; format: in vivo, spontaneously hypertensive rat; conditions: 0.003 mg/kg i.v. single bolus 2 hours after MCAO; infarct measured 24 hours after MCAO; vs vehicle-treated control
Text: To determine the ability of these compounds to reduce cell loss resulting from neuronal ischemia, a standard rodent model of permanent focal ischemia, involving occlusion of the middle cerebral artery in the spontaneously hypertensive rat (middle cerebral artery occlusion (MCAO) model) was employed [Tamura, A., et al., Journal of Cerebral Blood Flow and Metabolism, Volume 1, 53-60, (1981)]. Selected compounds have been evaluated in the focal stroke model involving permanent MCAO in the spontaneously hypertensive rat. This procedure results in a reliably large neocortical infarct volume that is measured by means of vital dye exclusion in serial slices through the brain 24 hours after MCAO. In the present test, compounds were administered using an intravenous route of administration at 2 hours after occlusion.

SMILES	ICP/BP responses elicited by sub-maximal stimulation of the cavernous nerve [1]	BK Current, percent increase over BK current in controls [2]	reduction of cortical infarct volume [3]	melting point [°C]
O=c1[nH]c2ccc(C(F)(F)F)cc2c(-c2cc(Cl)ccc2O)c1CCO [Example 4, 4-(5-Chloro-2-hydroxyphenyl)-3-(2-hydroxyethyl)-6-(trifluoromethy)-2(1H)-quinolinone]	produced an augmentation of the ICP/BP responses	++ (++ = >200%)		
COc1ccc(Cl)cc1-c1c(CCO)c(=O)[nH]c2ccc(C(F)(F)F)cc12 [Example 5, 4-(5-Chloro-2-methoxyphenyl)-3-(2-hydroxyethyl)-6-(trifluoromethyl)-2(1H)-quinolinone]		++ (++ = >200%)	about 25%	216 to 217
